Key:
[1] = test system: short chain fatty acids in cecal contents; experiment: Amount of intestinal short chain fatty acid in cecal contents upon intake of 1-kestose (GC/MS); type: in vivo, SD rats; conditions: for concentration of butyric acid in cecal contents: 30 days ad libitum; for amount of butyric acid in cecal contents: 30 days, calculated from concentration, Group A 781.14 μg
Experimental: (1) Breeding of Rats with Giving Oral Intake of 1-Kestose
The feeds containing 0, 0.5, 1.0, 2.5, and 5% by mass of 1-kestose were prepared by CLEA Japan, Inc. on commission. The composition of the feeds is described below. 40 SD rats (Japan SLC, Inc.) were divided into 5 groups of 8 animals and designated as Groups A to E. The rats were maintained for 30 days with ad libitum feeding of the feed without 1-kestose to Group A and of the ones with 1-kestose to Groups B to E, respectively. The rats were maintained under conditions at 23±1° C. in temperature with 12 hours of light periods (from 8:00 to 20:00) and 12 hours of dark periods (from 20:00 to 8:00).
[Composition (in % by mass) of feeds] Cornstarch 39.7486, milk casein 20, pregelatinized cornstarch 13.2, granulated sugar and/or 1-kestose (99% by mass in purity, B Food Science Co., Ltd.) 10, purified soybean oil 7, cellulose powder 5, mineral mixture 3.5, vitamin mixture 1, L-cystine 0.3, choline bitartrate 0.25, tert-butylhydroquinone 0.0014.
The rats in each group described in Example 1 (1) were dissected and their ceca were extracted. The contents of the ceca were collected and weighed. The concentrations of short chain fatty acids (butyric acid, propionic acid, isobutyric acid, acetic acid, isovaleric acid, and valeric acid) in the cecal contents were measured with a gas chromatography-mass spectrometer (GC/MS). The amounts of the short chain fatty acids in the cecal contents were calculated from the results of the measurement of the short chain fatty acid concentrations. Subsequently, the means of concentrations and amounts of short chain fatty acids for each group were calculated and shown in bar graphs. The results are illustrated in FIGS. 1 to 3.

[2] = test system: Clostridium cluster-XIVa and Clostridium cluster-XIVb (a group of butyric acid-producing bacteria); experiment: Real-time PCR of 16S rDNA copy number in cecal contents upon intake of 1-kestose; type: in vivo, SD rats
Experimental: (§1) The amounts of the following 4 microorganisms in the cecal contents of rats in Groups A and E described in Example 1 (1) were measured by real-time PCR.
2. Clostridium cluster-XIVa and Clostridium cluster-XIVb (a group of butyric acid-producing bacteria),
(§2) Specifically, the cecal contents of Groups A and E were disrupted with the bead beating system “FastPrep FP100A” (MP Biomedicals, LLC.). Subsequently, genomic DNA was extracted with the nucleic acid extraction instrument “Magtration® System 12GC” and its exclusive reagent “MagDEA® DNA 200” (Precision System Science Co., Ltd.) according to the instructions. Using this genomic DNA as a template, the real-time PCR was performed with primers specific for the 16S rDNAs of the aforementioned 4 microorganisms, the real-time PCR reagent “SYBR® Premix Ex Taq II (Tli RNaseH Plus)” (Takara), and the real-time PCR device “Rotor-Gene Q” (QIAGEN N.V.) and the copy numbers of the 16S rDNA from each microorganism per 1 g of the cecal contents were determined. The means and standard deviation of the copy numbers were calculated for each group and illustrated in bar graphs.
(§3) The sequences of the primers specific for 16S rDNA of each microorganism are listed below.
(§4) The standard curve was made from the result of real-time PCR for each microorganism under the same conditions using a plasmid DNA in which a part of the following sequence is incorporated as a template.
2. Clostridium clusters-XIVa and -XIVb (a group of butyric acid-producing bacteria); 16S rDNA sequence (SEQ ID NO: 10) of Clostridium clostridioforme JCM1291T

[3] = test system: The genus Bifidobacterium; experiment: as above; type: in vivo, SD rats; conditions: Group E
Experimental: as §1
1. The genus Bifidobacterium,
as §2, §3, §4
1. […]

[4] = test system: The genus Lactobacillus; experiment: as above; type: in vivo, SD rats
Experimental: as §1
3. The genus Lactobacillus
as §2, §3, §4
3. […]

[5] = test system: Akkermansia muciniphila; experiment: as above; type: in vivo, SD rats
Experimental: as §1
4. Akkermansia muciniphila
as §2, §3, §4
4. […]

[6] = Food processing and ingredients, Vol. 49, No. 12, p. 9, 2014; cited from earlier work
[7] = test system: ulcerative colitis model rats induced by dextran sulfate sodium (DSS); conditions: injection into the intestine; cited from earlier work
[8] = test system: fatty degeneration and inflammation in the liver by the intake of high-fat meals; conditions: oral administration, 0.02 g/kg body weight per day; cited from earlier work
[9] = test system: childhood diabetes model rat; conditions: intraperitoneal, 500 mg/kg of body weight per day (in terms of the dose of sodium butyrate); cited from earlier work
[10] = test system: LIM1215, human colorectal cancer cells; conditions: final concentration of 1 mmol/L; cited from earlier work
[11] = test system: obesity induced by high-fat meals; conditions: cited from earlier work
[12] = Group B: feed with 0.5% by mass 1-kestose
[13] = Group C: feed with 1.0% by mass 1-kestose
[14] = Group D: feed with 2.5% by mass 1-kestose
[15] = Group E: feed with 5% by mass 1-kestose
[16] = Groups B, C, D and E, cecal contents

Compound: OC[C@H]1O[C@@](CO)(OC[C@@]2(O[C@H]3O[C@H](CO)[C@@H](O)[C@H](O)[C@H]3O)O[C@H](CO)[C@@H](O)[C@@H]2O)[C@@H](O)[C@@H]1O [1-kestose]
- increase of butyric acid amount relative to Group A [1, 12]: approximately 1.4 times of that in Group A
- increase of butyric acid concentration relative to Group A [1, 12]: approximately 1.4 times of that in Group A
- concentration of butyric acid in cecal contents ([1]; Group B: feed with 0.5% by mass 1-kestose, daily intake 0.27 g/kg body weight, Group A (no 1-kestose) 205.86 μg/g): 288.09 µg/g
- amount of butyric acid in cecal contents [1, 12]: 1069.37 µg
- increase of butyric acid amount relative to Group A [1, 13]: approximately 1.4 times of that in Group A
- increase of butyric acid concentration relative to Group A [1, 13]: approximately 1.5 times of that in Group A
- concentration of butyric acid in cecal contents ([1]; Group C: feed with 1.0% by mass 1-kestose, Group A 205.86 μg/g): 314.59 µg/g
- amount of butyric acid in cecal contents [1, 13]: 1107.92 µg
- increase of butyric acid amount relative to Group A [1, 14]: approximately 3.6 times of that in Group A
- increase of butyric acid concentration relative to Group A [1, 14]: approximately 3.7 times of that in Group A
- concentration of butyric acid in cecal contents ([1]; Group D: feed with 2.5% by mass 1-kestose, Group A 205.86 μg/g): 754.17 µg/g
- amount of butyric acid in cecal contents [1, 14]: 2891.65 µg
- increase of butyric acid amount relative to Group A [1, 15]: approximately 14.5 times of that in Group A
- increase of butyric acid concentration relative to Group A [1, 15]: approximately 10 times of that in Group A
- concentration of butyric acid in cecal contents ([1]; Group E: feed with 5% by mass 1-kestose, 1.34 g/kg body weight, Group A 205.86 μg/g): 2005.26 µg/g
- amount of butyric acid in cecal contents [1, 15]: 11943.88 µg
- concentrations and amounts of acetic acid in comparison with Group A [1, 16]: significantly increased
- concentrations and amounts of isobutyric acid in comparison with Group A [1, 16]: significantly decreased
- concentrations and amounts of isovaleric acid in comparison with Group A [1, 16]: not significantly different
- concentrations and amounts of propionic acid in comparison with Group A [1, 16]: not significantly different
- concentrations and amounts of valeric acid in comparison with Group A [1, 16]: significantly decreased
- concentrations and amounts of butyric acid in comparison with Group A ([1]; any of Groups B to E (0.5 to 5% by mass 1-kestose in feed)): markedly increased
- copy number of 16S rDNA from the group of butyric acid-producing bacteria relative to Group A ([2]; Group E): approximately 5 times of that in Group A
- copy number of 16S rDNA from the group of butyric acid-producing bacteria, comparison with Group A in words ([2]; Group E): significantly increased
- copy number of 16S rDNA from Clostridium cluster XIV (a group of butyric acid-producing bacteria) ([2]; Group E (5% by mass 1-kestose in feed, 30 days), Group A 5071250000): 25287500000 per 1 g of the cecal contents
- copy number of 16S rDNA from the genus Bifidobacterium in comparison with Group A [3]: significantly increased
- copy number of 16S rDNA from Lactobacillus, Group E versus Group A [4]: did not have significant difference
- copy number of 16S rDNA from Akkermansia muciniphila, Group E versus Group A [5]: did not have significant difference
- toxicity in mutagenicity, acute toxicity, subchronic toxicity, and chronic toxicity tests [6]: no toxicity

Compound: CCCC(=O)O [butyric acid]
- inflammatory repair effect [7]: significant inflammatory repair effect
- fatty degeneration and inflammation in the liver by the intake of high-fat meals [8]: suppress
- values of AST, ALT, cholesterol, LDL in blood, neutral fat and fasting blood sugar levels, and insulin resistance index (HOMA-IR) [8]: normalize
- function and proliferation of β cells [9]: improve
- glucose homeostasis [9]: improve
- β cell death [9]: decrease
- proliferation rate [10]: decrease
- proliferation time [10]: extend
- body weight and the body fat percentage ([11]; oral, 5 g/kg body weight per day (in terms of sodium butyrate), mice in which obesity has been induced by high-fat meals): reduce
- weight gain and increase of the body fat percentage by eating of high-fat meals ([11]; oral, 5 g/kg body weight per day (in terms of sodium butyrate), mice that are not obese): suppress

Compound: CCCC(=O)[O-].[Na+] [sodium butyrate]
- increase of body weight and increase of the body fat percentage ([11]; mice fed on high-fat meals into which 5% by mass is mixed): suppressed

— patent publication US20190091248A1, “AGENT FOR INCREASING INTESTINAL BUTYRIC ACID AND PROLIFERATION AGENT FOR BUTYRIC ACID-PRODUCING BACTERIA” (B FOOD SCIENCE CO., LTD., priority 2016, published 2019)
